Laboratory results: the METLIN SMRT retention time set (Domingo-Almenara et al. 2019)

Assay: gradient 5% acetonitrile 3 min, to 50% in 2 min, to 85% in 15 min, held 3 min, 100 µL/min
Conditions: column: Zorbax Extend-C18 2.1 x 50 mm; eluents: water / acetonitrile, 0.1% formic acid
Summary of the method: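 Using water and acetonitrile that each contained 0.1% formic acid, mixtures of ~100 pure standards were separated at 100 μL/min on a Zorbax Extend-C18 column (2.1 × 50 mm, 1.8 μm). The HPLC fed a quadrupole time-of-flight mass spectrometer working in positive and negative ionization mode, with dead and dwell volumes of 40 μL and 900 μL. Data were acquired over 3 months. Retention time was read from computationally picked adduct peaks after manual inspection of each.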
With CCc1nc(N)n(CC(=O)Nc2cc(C)ccc2OC)c(=O)c1C the RP-LC retention time was 640 s.
For CN(C)c1cc(N2CCCC(NC(=O)c3cccn3C)C2)ncn1 (stereo not given), the RP-LC retention time was 571 s.
Compound Cc1cccc(NS(=O)(=O)c2ccc(-c3nnc(C4CCC4)o3)o2)c1C has an RP-LC retention time of 949 s.
With COc1ccc(S(=O)(=O)NCCS(=O)(=O)N2CCN(c3ccccc3)CC2)cc1 the RP-LC retention time was 849 s.
With COc1ccc(OC)c(NC(=O)CN2C(=O)NC(c3ccc(Cl)cc3)C3=C2COC3=O)c1 (stereo not given) the RP-LC retention time was 790 s.
COc1cc(OC)cc(C(=O)Nc2nc(-c3ccc4c(c3)NC(=O)C(C)O4)cs2)c1 (stereo not given) showed an RP-LC retention time of 940 s.
With CN(C)S(=O)(=O)c1ccc2c(c1)N(CC(=O)NCCc1ccccc1)C(=O)C1CCCCN21 (stereo not given) the RP-LC retention time was 918 s.
Compound Cc1ccccc1-c1csc(Nc2ccc(Br)cn2)n1 has an RP-LC retention time of 1230 s.
In the case of CC1CN(C(=O)N2CCC(C(=O)N3CCC(C(N)=O)CC3)CC2)c2cc(Cl)ccc2O1 (stereo not given), the RP-LC retention time is reported as 679 s.
For COc1ccc(-c2ncccc2CNS(=O)(=O)c2ccc(Br)cc2)cc1, the RP-LC retention time was 733 s.
Work on CC(Oc1ccccc1)c1nc(-c2ccc3c(c2)nnn3CCC(=O)N2CCCC2)no1 (stereo not given) yielded an RP-LC retention time of 899 s.
COc1nccnc1NC1CCN(C(=O)c2ccc(C#N)cc2)CC1 showed an RP-LC retention time of 804 s.
For Cc1cccc(-c2nn3c(N(C)C)cc(C)nc3c2C)c1, the RP-LC retention time was 716 s.
In the case of COc1ccc(-n2ccn3c(CCC(=O)NCCc4c[nH]c5ccccc45)nnc3c2=O)cc1, the RP-LC retention time is reported as 704 s.
O=C(NCCCn1ncccc1=O)c1cccc(-n2ccc3ccccc32)c1 gave an RP-LC retention time of 770 s.
COc1ccc(CNC(=O)Cn2nc3c4ccccc4ncn3c2=O)cc1 gave an RP-LC retention time of 651 s.
COc1ccccc1N1CCN(C(=O)C2CCN(c3ncnc4c3oc3ccccc34)CC2)CC1 showed an RP-LC retention time of 765 s.
For O=C(NCc1ccco1)c1nc(Nc2ccc(F)cc2)c2ccccc2n1, the RP-LC retention time was 779 s.
CCC(=O)N1CCc2c(C(=O)N3CCN(c4ccccc4)CC3)cccc21 showed an RP-LC retention time of 829 s.
With CC1=C(c2ccc(C(C)C)cc2)S(=O)(=O)N=C1N1CCC(C(=O)N2CCOCC2)CC1 the RP-LC retention time was 779 s.
Work on O=C(NCc1ccc(N2CCOCC2)cc1)c1cn2ccccc2n1 yielded an RP-LC retention time of 591 s.
Compound CCn1c(=O)sc2cc(S(=O)(=O)N3CCC(C(=O)NCc4ccccc4OC)CC3)ccc21 has an RP-LC retention time of 881 s.
Nc1nc(SCCc2ccccc2)c2[nH]cnc2n1 showed an RP-LC retention time of 675 s.
CCCOc1ccc(CNC(=O)c2cnc(OC)nc2)cc1 gave an RP-LC retention time of 803 s.
With CN(C(=O)c1cc2c(=O)oc3ccccc3c2n1C)c1ccccc1F the RP-LC retention time was 1060 s.
Compound COc1ccc(NC(=O)c2[nH]c3cc(C)sc3c2CN(C)C)cc1F has an RP-LC retention time of 680 s.
Compound O=C(COc1ccccc1)N1CCC(CNS(=O)(=O)Cc2cccc(F)c2)CC1 has an RP-LC retention time of 782 s.
O=C(C1CCOC1)N1CCCn2nc(-c3cccc(Cl)c3)cc2C1 (stereo not given) showed an RP-LC retention time of 771 s.
Cc1nc(-c2cn(C)c3ncccc23)sc1C(=O)NCc1ccccc1Cl showed an RP-LC retention time of 942 s.
In the case of COC(=O)c1c(C)[nH]c(C(=O)N2CCCC(C(=O)NCc3cccnc3)C2)c1C (stereo not given), the RP-LC retention time is reported as 577 s.
Cc1ccccc1N1CCN(C(=O)c2ccnc(N3CCCC3)n2)CC1 gave an RP-LC retention time of 996 s.
CCC(C)NC(=O)C1CCN(S(=O)(=O)c2c(C)[nH]c(C)c2C(=O)N2CCCCC2)CC1 (stereo not given) showed an RP-LC retention time of 672 s.
With COc1cc(S(=O)(=O)NC2CC(C)(C)NC(C)(C)C2)ccc1F the RP-LC retention time was 553 s.
With COc1ccc(CCNC(=O)C2CCN(S(=O)(=O)c3cn(C(C)C)cn3)CC2)cc1OC the RP-LC retention time was 689 s.
Work on Cc1ccc(-c2noc(C(=O)N3CCOCC3)n2)cc1S(=O)(=O)N1CCN(c2ncccn2)CC1 yielded an RP-LC retention time of 906 s.
Work on CCCOC(=O)C1=C(C)NC2=C(C(=O)CCC2)C1c1ccc(OC)c(OC)c1OC (stereo not given) yielded an RP-LC retention time of 791 s.
Cc1ccc(S(=O)(=O)N2CCCC(Cn3c(C4CC4)nc4cccnc43)C2)c(C)c1 (stereo not given) showed an RP-LC retention time of 832 s.
Work on CCC(=O)N1CCCC(C(=O)NC2CC2)C1 (stereo not given) yielded an RP-LC retention time of 567 s.
Compound Cn1c(N2CCC(C(=O)NC3CCN(Cc4ccccc4)CC3)CC2)cc(=O)n(C)c1=O has an RP-LC retention time of 578 s.
For CCOC(=O)c1ccc(Nc2c(-c3ccc(C)cc3)nc3cnccn23)cc1, the RP-LC retention time was 918 s.
COc1ccccc1NC(=O)NCC(c1cccnc1)c1cn(C)c2ccccc12 (stereo not given) showed an RP-LC retention time of 678 s.
In the case of Cc1ccc(Cn2c(=O)c(N3CCN(C(=O)C4CCCO4)CC3)nc3cccnc32)cc1 (stereo not given), the RP-LC retention time is reported as 998 s.
Work on COC(=O)C1=CN(c2cccc(F)c2)c2ccccc2S1(=O)=O yielded an RP-LC retention time of 796 s.
Compound Cc1ccc(NC(=O)C2CCC(=O)N2S(=O)(=O)c2ccc(C)c(C)c2)cc1C (stereo not given) has an RP-LC retention time of 1040 s.
For Cc1ccc(-c2cn3c4c(=O)n(C)c(=O)n(C)c4nc3n2Cc2ccc(F)cc2)cc1, the RP-LC retention time was 983 s.
